Results on 1 compound are retold here after patent US7786142B2, “Heterocyclic compounds as pSTAT3/IL-6 inhibitors” (Orchid Research Laboratories, Ltd., priority 2005, dated 2010).

One series has as its system NCIH460 cells. Put plainly: Anti-cancer screen (MTT), NCIH460 cells. As to conditions: Homo sapiens, NCI-H460, NCIH460, 48 hours, concentrations tested 0.01-100 μM. Format: cell-based. On the procedure: (§1) Experimental drugs are screened for anti-cancer activity in three cell lines for their GI50, TGI and LC50 values (using five concentrations for each compound). The cell lines are maintained in DMEM containing 10% fetal bovine serum. 96 well micro titer plates are inoculated with cells in 100 μL for 24 hours at 37° C., 5% CO2, 95% air and 100% relative humidity. 5000 HCT116 cells/well, 5000 NCIH460 cells/well and 5000 U251 cells/well are plated. A separate plate with these cell lines is also inoculated to determine cell viability before the addition of the compounds (T0), (See Table I).
(§2) Following 24-hours incubation, experimental drugs are added to the 96 well plates. Each plate contains one of the above cell lines and the following in triplicate: five different concentrations (0.01, 0.1, 1, 10 and 100 μM) of four different compounds, appropriate dilutions of a cytotoxic standard and control (untreated) wells. Compounds are dissolved in DMSO to make 20 mM stock solutions on the day of drug addition and frozen at −20° C. Serial dilutions of these 20 mM stock solutions are made in complete growth medium such that 100 μL of these drug solutions in medium, of final concentrations equaling 0.01, 0.1, 1, 10 and 100 μM can be added to the cells in triplicate. Standard drugs whose anti-cancer activity has been well documented and which are regularly used are Doxorubicin and SAHA, (See Table I).
(§3) For T0 measurement, 24 hours after seeding the cells, 10 μL of 3-(4,5-Dimethyl-2-thiazolyl)-2,5-diphenyl-2H-tetrazolium (MTT) solution per well is added and incubation carried out for 3 hours at 37° C., 5% CO2, 95% air and 100% relative humidity, protected from light. Cells incubated with compounds for 48 hours are treated similarly except with the addition of 20 μL MTT solution per well and a subsequent incubation under the same conditions. After 3 hours of MTT incubation, well contents are aspirated carefully followed by addition of 150 μL DMSO per well. Plates are agitated to ensure solution of the formazan crystals in DMSO and absorbance read at 570 nm, (See Table I).
(§4) Percent growth is calculated for each compound's concentration relative to the control and zero measurement wells (T0; viability right before compound addition). If a test well's O.D. value is greater than the T0 measurement for that cell line % Growth=(test−zero)/(control−zero)×100

The conditions of series [1]: mouse, in vivo. On the procedure: All test compound/standard drugs were delivered by gavage in a volume of 10 ml/kg. Drugs were administered every day for single time to a period of 21 days. Control mice were treated with the drug solvent/vehicle. Tumor size is measured every alternate days and body weight is recorded daily.
• a) Tumor Volume Inhibition (TVI): A TVI value higher than 80% is indicative of active compounds. • b) T/C % is also another indicator for the activity. A reproducible 20% T/C is considered as therapeutically active. • c) Log Cell Kill (LCK): A LCK value greater than 1 is indicative of active compounds. • d) Relative Tumor Volume (RTV), Tumor Delay and % Tumor volume change are also considered as valuable additional parameters for assessment. • e) Toxic effects of drug treatment were assessed by Body Weight Loss % • f) Lethal toxicity was defined as any death in treated groups occurring before any control death. Mice were inspected daily for mortality and toxic clinical signs.

For series [2], the system named is NCIH460, HCT116, MDAMB-231/U 251. Nature of the series: Anti-cancer screen, mean GI50 over the cell lines. Format: cell-based. On the procedure:
as §1, §2, §3, §4

A further series deals with IL-6. Nature of the series: IL-6 in culture supernatants of NCIH 460 cells (ELISA). Format: cell-based, Human. On the procedure:
Human Lung Cancer cell line (NCIH 460) is used for IL-6 measurement. 5000 cells/well were seeded in a 96 well plate and incubated in CO2 incubator at 37° C. for 24 hours. After 24 hours of incubation the medium from all wells were completed removed and added 100 μl of fresh DMEM containing 10% FCS. 100 μl of different concentrations of the drug were added and incubated for 5 hours in CO2 incubator at 37° C. After 5 hours of incubation the supernatants were collected and stored at −80° C. The concentration of IL-6 in the supernatant was measured using ELISA kit and the IC50 value of the compound was determined from the dose response curve, (See Table II).
For orientation: An ELISA detects its analyte on a solid surface through an enzyme-linked reagent.

The test system of a further series is pSTAT3. Put plainly: pSTAT3 inhibition (Western blot in DU 145 / SKOV-3 cells; ELISA in HepG2 cells). Format: cell-based. The conditions noted are these: in words; FIGS. 1 and 2. On the procedure:
Western blot analysis was performed as described by Kammer W et. al (J Biol Chem 271, 23634-23637, and J Biol Chem 273, 31222-31229). Briefly, 60 μg of whole cell extract was solubilized in Laemmeli buffer (50 mM Tris/HCl, pH 6.8, 2% SDS, 10% glycerol, 1 mM DTT, 1× Protease inhibitor cocktail, SET-3 (Calbiochem), 1 mM Sodium Ortho-vanadate) boiled for 5-10 minutes, and separated on a 10 or 12% acrylamide SDS gel. After protein transfer, the nitrocellulose membranes were blocked in blocking buffer for 2 hour (1×TBS, 0.1% Tween-20, 5% BSA). Membranes were incubated for 20 hours in blocking buffer containing, STAT3 P-Tyr705 (Santa Cruz Biotech), STAT3 (H-190, Santa Cruz Biotech) and Actin (C-2, Santa Cruz Biotech) antibody at 1:300 dilution. Detection was performed with HRP conjugated antimouse/antirabbit IgG (Santa Cruz Biotech) at a dilution of 1:3,000 for 1 hour. Visualization was performed using an Enhanced Chemiluminescence detection kit (Amersham). See Appended Diagrams: FIGS. 1 and 2. […]
Capture Antibody was diluted to a working concentration of 2.0 μg/mL in PBS. […] The plates were made ready after 2-3 washes with wash buffer. […] The reaction was stopped by adding 50 μl of stop solution to each well and the OD was determined using a microplate reader at 450 nm.
On the technique in general: Immunoblotting shows a protein as a band on a membrane.

Entries after “also recorded” stand apart in the source; their conditions may differ.

Broadly, the GI50 is the concentration giving 50% growth inhibition. High values mean lower sensitivity of the cells, low ones greater sensitivity of the cells. Usually inhibition stands for the relative decrease from the control value, in per cent. Low readings indicate little suppression, high ones strong suppression. As usually defined, the IC50 is the point on the concentration scale where inhibition reaches its midpoint.

In the series with NCIH460 cells, `COc1ccc(CNC[C@H](O)COc2cccc3[nH]c4ccccc4c23)c(OC)c1` [Example 25, (2S)-1-(9H-carbazol-4-yloxy)-3-[(2,4-dimethoxybenzyl)amino]propan-2-ol] displayed a GI50 of 0.67 µM and an IC (TGI) of 55 µM. Further, the CC50 in the series on NCIH460 cells (read-out: LC50 (the source's name)) worked out at 68 µM. In series [1], the body weight loss entry is listed as “no body weight loss was observed”. In series [2], this compound yielded a GI50 of 6.4 µM. In addition, the inhibition at 0.1 µM in the series on IL-6 (Homo sapiens, NCI-H460, 0.1 μM, NCIH 460, 5 hours) is 36%. Moreover, at 1 µM the inhibition in the series with IL-6 (Homo sapiens, NCI-H460, 1 μM, NCIH 460, 5 hours) was 50.9%. Besides, the IC50 in the series on IL-6 (Homo sapiens, NCI-H460, NCIH 460, 5 hours, read-out: IL-6 Inhibition IC50) worked out at 0.78 µM. Also, in the series with IL-6 (in words), the IL-6 inhibition result is reported as “very good IL-6 inhibition”. In addition, in the series on pSTAT3, the pSTAT3 inhibition entry was “work through pSTAT3 inhibition; also recorded: operates through pSTAT3 inhibition”.
